Source: patent US5935928A, “Modified platelet factor-4” (Eli Lilly and Company, priority 1996, dated 1999)
Positions of bridges follow the written chain, without caps; N, C: chain ends. Chains are numbered I, II in the order given. No end group written: not given here.

Assay: Heparin-affinity chromatography (heparin binding)
Settings: heparin-sepharose; eluted in high-affinity fraction 0.7M to 2.0M NaCl
Source text: The eluted proteins are then contacted with a heparin affinity resin. The ordinarily skilled artisan will readily realize that this step is best achieved in a column chromatography mode. Heparin affinity columns are commercially available from some of the same vendors mentioned above. In this step, the molecules of interest, both MPF-4 or CPF-4, bind to the heparin column and are eluted using an increasing linear salt gradient. The preferred salt is NaCl, and the portion of the gradient that is preferably collected is the 0.1-2.0M portion. The more highly preferred portion of the gradient to collect is the 0.7-2.0M portion.
The C4-pool was further fractionated by heparin affinity chromatography on a Econo-pac™ 5 ml heparin-sepharose cartridge (BioRad, Richmond, Calif. 94804). The bound proteins were eluted by a linear gradient of 0 to 2.0M NaCl in phosphate buffer saline (PBS) at a flow rate of 2.0 ml/min. The proteins that eluted from the column were pooled into three fractions: (1) non-heparin binding (flow through), (2) low-affinity heparin binding (0 to 0.7M NaCl), and (3) high-affinity heparin binding (0.7M to 2.0M NaCl) fractions.
The high affinity heparin binding fraction (3) (0.7M to 2.0M NaCl) was applied to a Vydac™ 0.46×10 cm C-4 HPLC column (The Marshall Co.; Worthington, Ohio 43085), previously equilibrated with 27% acetonitrile, 0.1% TFA. […]

Molecule	heparin binding
MPF-4: Naturally-occurring 54 amino acid protein (SEQ ID NO:1), homologous with the 54 C-terminal residues of PF-4, beginning with Ser-17 (SQVRPRHITSLEVIKAGPHCPTAQLIATLKNGRKICLDLQAPLYKKIIKKLLES)	bind heparin
CPF-4: Proteolytically cleaved, non-reduced PF-4: 16 amino acid chain (SEQ ID NO:2) disulfide bonded to the 54 amino acid chain of MPF-4 (protein, disulfide I:10-II:20, I:12-II:36; not fully specified) chain 1: EAEEDGDLQCLCVKTT chain 2: SQVRPRHITSLEVIKAGPHCPTAQLIATLKNGRKICLDLQAPLYKKIIKKLLES	bind heparin
